This is an account of results in US20250241926A1, “HETEROCYCLIC COMPOUNDS FOR USE IN THE TREATMENT OF CANCER” (ARTIOS PHARMA LIMITED, priority 2021, published 2025).

The target of the test is T1, Human Polθ polymerase domain (aa1820-2590) (Homo sapiens, UniProt O75417).
T1 construct: Human Polθ polymerase domain (aa1820-2590) was expressed in E. Coli; made in house; host or cells: E. coli
T1 sequence (O75417 1820-2590): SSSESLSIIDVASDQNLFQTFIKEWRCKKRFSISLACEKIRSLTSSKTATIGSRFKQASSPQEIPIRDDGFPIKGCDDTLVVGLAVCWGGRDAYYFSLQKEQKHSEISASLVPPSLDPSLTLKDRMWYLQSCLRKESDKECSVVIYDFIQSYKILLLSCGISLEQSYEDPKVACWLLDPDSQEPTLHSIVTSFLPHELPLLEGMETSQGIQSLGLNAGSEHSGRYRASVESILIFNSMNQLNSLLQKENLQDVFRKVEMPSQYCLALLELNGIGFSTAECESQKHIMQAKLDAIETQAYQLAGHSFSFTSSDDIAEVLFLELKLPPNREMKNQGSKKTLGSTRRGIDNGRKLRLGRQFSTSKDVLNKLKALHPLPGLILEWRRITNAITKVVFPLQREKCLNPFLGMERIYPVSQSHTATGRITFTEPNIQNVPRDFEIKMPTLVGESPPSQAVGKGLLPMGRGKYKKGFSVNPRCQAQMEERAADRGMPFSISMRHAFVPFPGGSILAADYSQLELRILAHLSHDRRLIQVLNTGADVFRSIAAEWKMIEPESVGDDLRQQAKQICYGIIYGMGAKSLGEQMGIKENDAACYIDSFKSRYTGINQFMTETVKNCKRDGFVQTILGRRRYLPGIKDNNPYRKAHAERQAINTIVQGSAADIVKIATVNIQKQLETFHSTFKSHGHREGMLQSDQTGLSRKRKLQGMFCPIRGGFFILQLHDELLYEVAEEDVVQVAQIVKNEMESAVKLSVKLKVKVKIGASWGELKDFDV
The test can be described thus: Polθ Polymerase Domain Kinact/Kl Assay (PicoGreen). In kind it is biochemical. Particulars: covalent inhibitors, kobs vs [I] fit, 0.8 nM Polθ, 100 nM DNA substrate, read-out: Kinact/KI. The protocol:
Polθ Polymerase Domain Kinact/Kl Assay
A PicoGreen assay was used to measure the Kinact and Kl values of covalent compounds that inhibit the activity of Polθ in vitro.
Human Polθ polymerase domain (aa1820-2590) was expressed in E. Coli, purified, aliquoted and stored at −80° C. until required. Polθ substrate was generated from a 1.2:1 mix of DNA II Short to DNA II Long to give a final concentration of […] substrate in annealing buffer (20 mM Tris pH 7.5, 50 mM NaCl). The substrate was heated in 50 mL aliquots to 95° C. in a heating block for 5 min before the heating block switched off, the reaction left to cool to rt and stored at −20° C. until required.
Assay measurements were performed with 1× buffer comprising 25 mM Tris pH 7.5, 12.5 mM NaCl, […], 5% (v/v) glycerol, 0.01% v/v Triton x-100, 0.1 mg/ml BSA, 1 mM DTT. Test compounds were prepared by dilution in 100% DMSO to give a 12 μM intermediate stock of each (100× final top concentration). 100 nL of 23× 1:1.5-fold serial dilutions and a DMSO only control were dispensed using the Tecan dispenser into Greiner 384 well black low volume plates (product code 784076). DMSO concentration was maintained at 1% of the final assay volume by back filling with DMSO.
2× Working stock of substrate (200 nM of DNA substrate and […] dNTPs) and enzyme (1.4 nM Polθ) were made up in assay buffer. 5 μL/well of both enzyme and substrate 2× solutions were dispensed using a Tempest dispenser (Formulatrix) into assay plates that had been pre-dispensed with compound to give a final assay concentration of 100 nM DNA substrate, […] dNTPs and 0.8 nM Polθ. To stop the reaction, […] of a solution containing 25 mM Tris-HCl pH 7.5 and 20 mM EDTA was added at […] (t=0, 2.5, 5, 7.5, 10, 12.5, 15, 20, 25, 30, 35, 40, 45, 50, 55 and 60 min) using the Tempest's time delay function. The plates were covered during the time course to prevent evaporation. After completing the assay, 5 μL of detection reagent (25 mM Tris-HCl pH 7.5 and 2.5% (v/v) PicoGreen) was dispensed into the wells using a Tempest liquid handler (Formulatrix) and plates subsequently read on the CLARIOstar Plus (BMG Labtech) using the default optical settings for fluorescein and the auto gain/focus settings.
All data analysis was carried out using GraphPad Prism V. 8 (GraphPad Software Inc, San Diego, CA) Time course data for each inhibitor concentration was fitted to equation 1 to determine kobs values.^1 Any time points where the control (DMSO alone) reaction was no longer linear were excluded from the analysis.
A secondary plot of kobs vs [I] is used to determine the Kinact and Kl parameters (for a 2-step covalent inhibitor) by fitting to equation 2.1
[formula] • 1) Evaluation of Enzyme Inhibitors in Drug Discovery (Ch9), R. A Copeland, Wiley, 2nd Edition 2013.
Turning to `C=CC(=O)N1CC(N2CCN(CCN3CC[C@H](Nc4nc(C)cc(C(F)(F)F)c4C#N)C(=O)N(C)c4ccccc43)CC2)C1` [Example 20, (S)-2-((6-(2-(4-(1-Acrylo-ylazetidin-3-yl)piperazin-1-yl)ethyl)-1-methyl-2-oxo-1,2,3,4,5,6-hexa-hydrobenzo[b][1,4]diazocin-3-yl)amino)-6-methyl-4-(trifluorometh-yl)nicotinonitrile], the kinact/KI is 500000 M⁻¹ s⁻¹.

For the compound `C=CC(=O)N1CC2(CN(CCN3CC[C@H](Nc4nc(C)cc(C(F)(F)F)c4C#N)C(=O)N(C)c4ccccc43)CCO2)C1` [Example 21, (S)-2-((6-(2-(2-Acryloyl-5-oxa-2,8-diazaspiro[3.5]nonan-8-yl)ethyl)-1-meth-yl-2-oxo-1,2,3,4,5,6-hexa-hydrobenzo[b][1,4]diazocin-3-yl)amino)-6-methyl-4-(trifluorometh-yl)nicotinonitrile], the kinact/KI came to 1.2e+06 M⁻¹ s⁻¹. With `C=CC(=O)N1CC2(CN(CCN3CC[C@H](Nc4nc(C)cc(C(F)(F)F)c4C#N)C(=O)N(C)c4ccccc43)C2)C1` [Example 22, (S)-2-((6-(2-(6-Acryloyl-2,6-diazaspiro[3.3]heptan-2-yl)ethyl)-1-methyl-2-oxo-1,2,3,4,5,6-hexa-hydrobenzo[b][1,4]diazocin-3-yl)amino)-6-methyl-4-(trifluorometh-yl)nicotinonitrile] the figure was 500000 M⁻¹ s⁻¹.

Take `C=CC(=O)N1CC2(CN(CCN3CC[C@H](Nc4nc(C)cc(C(F)(F)F)c4C#N)C(=O)N(C)c4cccc(F)c43)CCN2)C1` [Example 23, (S)-2-((6-(2-(2-Acryloyl-2,5,8-triazaspiro[3.5]nonan-8-yl)ethyl)-7-fluoro-1-methyl-2-oxo-1,2,3,4,5,6-hexahydrobenzo[b][1,4]diazocin-3-yl)amino)-6-methyl-4-(trifluoromethyl)nicotinonitrile]: the kinact/KI turned out to be 940000 M⁻¹ s⁻¹. With `Cc1cc(C(F)(F)F)c(C#N)c(N[C@H]2CCN(CCN3CC4(CN(C(=O)/C=C/CN(C)C)C4)OC3=O)c3c(F)cccc3N(C)C2=O)n1` [Example 24, (S,E)-2-((6-(2-(2-(4-(Dimethylamino)but-2-enoyl)-6-oxo-5-oxa-2,7-diazaspiro[3.4]octan-7-yl)ethyl)-7-fluoro-1-methyl-2-oxo-1,2,3,4,5,6-hexahydrobenzo[b][1,4]diazocin-3-yl)amino)-6-methyl-4-(trifluoromethyl)nicotinonitrile] the figure was 630000 M⁻¹ s⁻¹. With `C#CCN1CCN(CCN2CC[C@H](Nc3nc(C)cc(C(F)(F)F)c3C#N)C(=O)N(C)c3cccc(F)c32)CC12CN(C(=O)C=C)C2` [Example 25, (S)-2-((6-(2-(2-Acryloyl-5-(prop-2-yn-1-yl)-2,5,8-triazaspiro[3.5]nonan-8-yl)ethyl)-7-fluoro-1-methyl-2-oxo-1,2,3,4,5,6-hexahydrobenzo[b][1,4]diazocin-3-yl)amino)-6-methyl-4-(trifluoromethyl)nicotinonitrile] the figure was 1.6e+06 M⁻¹ s⁻¹. With `C#CCN1CCN(CCN2CC[C@H](Nc3nc(C)cc(C(F)(F)F)c3C#N)C(=O)N(C)c3cccc(F)c32)CC12CN(C(=O)/C=C/CN(C)C)C2` [Example 26, (S,E)-2-((6-(2-(2-(4-(Dimethylamino)but-2-enoyl)-5-(prop-2-yn-1-yl)-2,5,8-triazaspiro[3.5]nonan-8-yl)ethyl)-7-fluoro-1-methyl-2-oxo-1,2,3,4,5,6-hexahydrobenzo[b][1,4]diazocin-3-yl)amino)-6-methyl-4-(trifluoromethyl)nicotinonitrile] the figure was 2.1e+06 M⁻¹ s⁻¹; with `C#CCOC(=O)N1CCN(CCN2CC[C@H](Nc3nc(C)cc(C(F)(F)F)c3C#N)C(=O)N(C)c3cccc(F)c32)CC12CN(C(=O)/C=C/CN(C)C)C2` [Example 27, (S,E)-Prop-2-yn-1-yl 8-(2-(4-((3-cyano-6-methyl-4-(trifluoromethyl)pyridin-2-yl)amino)-10-fluoro-6-methyl-5-oxo-3,4,5,6-tetrahydrobenzo[b][1,4]diazocin-1(2H)-yl)ethyl)-2-(4-(dimethylamino)but-2-enoyl)-2,5,8-triazaspiro[3.5]nonane-5-carboxylate], 940000 M⁻¹ s⁻¹. Take `Cc1cc(C(F)(F)F)c(C#N)c(N[C@H]2CCN(CCN(C)C(=O)C3CN(C(=O)/C=C/CN(C)C)C3)c3c(F)cccc3N(C)C2=O)n1` [Example 29, (S,E)-N-(2-(4-((3-Cyano-6-methyl-4-(trifluoromethyl)pyridin-2-yl)amino)-10-fluoro-6-methyl-5-oxo-3,4,5,6-tetrahydrobenzo[b][1,4]diazocin-1(2H)-yl)ethyl)-1-(4-(dimethylamino)but-2-enoyl)-N-methylazetidine-3-carboxamide]: the kinact/KI turned out to be 1.2e+06 M⁻¹ s⁻¹. With `Cc1cc(C(F)(F)F)c(C#N)c(N[C@H]2CCN(CCN(C)C(=O)[C@@H]3CCN(C(=O)/C=C/CN(C)C)C3)c3ccccc3N(C)C2=O)n1` [Example 30, (R)—N-(2-((S)-4-((3-Cyano-6-methyl-4-(trifluoromethyl)pyridin-2-yl)amino)-6-methyl-5-oxo-3,4,5,6-tetrahydrobenzo[b][1,4]diazocin-1(2H)-yl)ethyl)-1-((E)-4-(dimethylamino)but-2-enoyl)-N-methylpyrrolidine-3-carboxamide] the figure was 690000 M⁻¹ s⁻¹; with `Cc1cc(C(F)(F)F)c(C#N)c(N[C@H]2CCN(CCN(C)C(=O)C3CN(C(=O)/C=C/CN(C)C)C3)c3ccccc3N(C)C2=O)n1` [Example 31, (S,E)-N-(2-(4-((3-Cyano-6-methyl-4-(trifluoromethyl)pyridin-2-yl)amino)-6-methyl-5-oxo-3,4,5,6-tetrahydrobenzo[b][1,4]diazocin-1(2H)-yl)ethyl)-1-(4-(dimethylamino)but-2-enoyl)-N-methylazetidine-3-carboxamide], 920000 M⁻¹ s⁻¹; with `C=CC(=O)N1CCN(CC(O)CN2CC[C@H](Nc3nc(C)cc(C(F)(F)F)c3C#N)C(=O)N(C)c3ccccc32)CC1` (stereo partly drawn) [Example 35, 2-(((3S)-6-(3-(4-Acryloylpiperazin-1-yl)-2-hydroxypropyl)-1-methyl-2-oxo-1,2,3,4,5,6-hexahydrobenzo[b][1,4]diazocin-3-yl)amino)-6-methyl-4-(trifluoromethyl)nicotinonitrile], 340000 M⁻¹ s⁻¹. The figure for `C=CC(=O)N1CC2(CN(CC(O)CN3CC[C@H](Nc4nc(C)cc(C(F)(F)F)c4C#N)C(=O)N(C)c4ccccc43)C2)C1` (stereo partly drawn) [Example 36, 2-(((3S)-6-(3-(6-Acryloyl-2,6-diazaspiro[3.3]heptan-2-yl)-2-hydroxypropyl)-1-methyl-2-oxo-1,2,3,4,5,6-hexahydrobenzo[b][1,4]diazocin-3-yl)amino)-6-methyl-4-(trifluoromethyl)nicotinonitrile] is 360000 M⁻¹ s⁻¹; for `C=CC(=O)N1CCN(CCCN2CC[C@H](Nc3nc(C)cc(C(F)(F)F)c3C#N)C(=O)N(C)c3cccc(F)c32)CC1` [Example 37, (S)-2-((6-(3-(4-Acryloylpiperazin-1-yl)propyl)-7-fluoro-1-methyl-2-oxo-1,2,3,4,5,6-hexahydrobenzo[b][1,4]diazocin-3-yl)amino)-6-methyl-4-(trifluoromethyl)nicotinonitrile] it is 340000 M⁻¹ s⁻¹.
